For two compounds, IC50 results are on record in patent US20110136862A1, “NOVEL TETRAMETHYL SUBSTITUTED PIPERIDINE DERIVATIVES AND THEIR USE AS MONOAMINE NEUROTRANSMITTER RE-UPTAKE INHIBITORS” (NEUROSEARCH A/S, priority 2008, published 2011).

Common to all, as to format: biochemical
The target of assay [1] is T1, reuptake of noradrenaline (NA) in synaptosomes (Rattus norvegicus, UniProt Q63380).
T1 construct: in synaptosomes as described in WO 97/16451; from tissue
As to the kind of experiment: Inhibition of NA reuptake in synaptosomes. To be noted: 3H-NA, read-out: NA-uptake IC50. As for the experimental part:
(§1) Compounds were tested for their ability to inhibit the reuptake of the monoamine neurotransmitters dopamine (DA) noradrenaline (NA) and serotonine (5-HT) in synaptosomes as described in WO 97/16451 (NeuroSearch A/S).
(§2) The test values are given as IC50 (the concentration (μM) of the test substance which inhibits the specific binding of ^3H-DA, ^3H-NA, or ^3H-5-HT by 50%).

In assay [2] the target is T2, reuptake of serotonine (5-HT) in synaptosomes (Rattus norvegicus, UniProt P31652).
T2 construct: serotonine (5-HT) in synaptosomes; from tissue
As to the kind of experiment: Inhibition of 5-HT reuptake in synaptosomes. To be noted: 3H-5-HT, read-out: 5-HT-uptake IC50. As for the experimental part: as §1, §2

The target in assay [3] is T3, reuptake of dopamine (DA) in synaptosomes (Rattus norvegicus, UniProt P23977).
T3 construct: in synaptosomes as described in WO 97/16451; from tissue
As to the kind of experiment: Inhibition of DA reuptake in synaptosomes. Conditions: 3H-DA, read-out: DA-uptake IC50. As for the experimental part:
as §1, §2

T3 sequence (P23977 whole entry): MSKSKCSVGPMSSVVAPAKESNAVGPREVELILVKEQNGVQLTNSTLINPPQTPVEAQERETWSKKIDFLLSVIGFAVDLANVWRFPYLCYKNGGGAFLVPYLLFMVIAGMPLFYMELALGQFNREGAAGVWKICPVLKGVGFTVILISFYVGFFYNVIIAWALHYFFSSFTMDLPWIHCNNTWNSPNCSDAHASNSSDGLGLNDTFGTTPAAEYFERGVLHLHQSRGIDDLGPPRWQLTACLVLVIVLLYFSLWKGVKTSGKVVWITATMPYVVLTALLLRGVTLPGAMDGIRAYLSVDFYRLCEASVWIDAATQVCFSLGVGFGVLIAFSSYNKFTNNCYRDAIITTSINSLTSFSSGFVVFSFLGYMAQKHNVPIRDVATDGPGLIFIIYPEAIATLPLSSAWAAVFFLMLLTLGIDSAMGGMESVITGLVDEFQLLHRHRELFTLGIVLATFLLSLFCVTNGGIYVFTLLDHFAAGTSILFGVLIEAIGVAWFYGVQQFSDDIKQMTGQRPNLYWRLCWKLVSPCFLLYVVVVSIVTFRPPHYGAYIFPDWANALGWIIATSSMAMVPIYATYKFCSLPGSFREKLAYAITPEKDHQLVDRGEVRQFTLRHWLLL
T2 sequence (P31652 whole entry): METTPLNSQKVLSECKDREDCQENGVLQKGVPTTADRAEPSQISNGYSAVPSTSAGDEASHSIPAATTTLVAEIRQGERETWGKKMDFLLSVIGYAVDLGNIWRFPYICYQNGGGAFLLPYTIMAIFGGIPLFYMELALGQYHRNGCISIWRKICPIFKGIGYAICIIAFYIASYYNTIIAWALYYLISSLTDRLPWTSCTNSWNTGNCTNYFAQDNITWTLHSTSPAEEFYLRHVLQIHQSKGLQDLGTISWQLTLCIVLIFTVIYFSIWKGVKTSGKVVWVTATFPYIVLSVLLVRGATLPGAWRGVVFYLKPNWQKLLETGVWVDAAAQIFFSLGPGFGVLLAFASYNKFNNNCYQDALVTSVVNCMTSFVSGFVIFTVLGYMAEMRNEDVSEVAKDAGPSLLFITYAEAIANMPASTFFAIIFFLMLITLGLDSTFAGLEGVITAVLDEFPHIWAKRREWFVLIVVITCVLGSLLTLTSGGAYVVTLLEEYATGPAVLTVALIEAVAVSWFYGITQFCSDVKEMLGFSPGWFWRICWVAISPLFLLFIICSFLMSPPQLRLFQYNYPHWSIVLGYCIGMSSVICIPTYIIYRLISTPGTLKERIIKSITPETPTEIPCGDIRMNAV
T1 sequence (Q63380 1-617): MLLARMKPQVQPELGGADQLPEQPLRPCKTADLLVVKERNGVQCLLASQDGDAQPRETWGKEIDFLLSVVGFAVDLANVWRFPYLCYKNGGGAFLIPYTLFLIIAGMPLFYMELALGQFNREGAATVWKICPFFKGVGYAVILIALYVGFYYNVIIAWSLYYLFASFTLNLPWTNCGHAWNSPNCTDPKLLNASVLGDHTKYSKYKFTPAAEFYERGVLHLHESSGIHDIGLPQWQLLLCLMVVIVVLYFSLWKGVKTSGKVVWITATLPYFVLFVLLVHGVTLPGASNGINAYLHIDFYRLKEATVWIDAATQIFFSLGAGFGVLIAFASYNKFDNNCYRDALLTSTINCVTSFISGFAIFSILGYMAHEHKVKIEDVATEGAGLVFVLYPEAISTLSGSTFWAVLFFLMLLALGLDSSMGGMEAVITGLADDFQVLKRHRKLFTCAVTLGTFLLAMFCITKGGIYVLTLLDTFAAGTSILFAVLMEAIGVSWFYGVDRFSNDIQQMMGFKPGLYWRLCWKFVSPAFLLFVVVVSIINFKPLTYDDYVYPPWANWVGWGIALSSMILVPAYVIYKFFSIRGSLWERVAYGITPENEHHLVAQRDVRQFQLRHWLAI

As for `CC1(C)CC(Oc2ccc3cc(O)ccc3n2)CC(C)(C)N1` [2-(2,2,6,6-Tetramethyl-piperidin-4-yloxy)-quinolin-6-ol], the results for the IC50 in assay [1], in assay [2] and in assay [3] were 130 nM, 13 nM and 78 nM, respectively.

In the case of `CC1(C)CC(Oc2ccc3ccccc3n2)CC(C)(C)N1` [2-(2,2,6,6-Tetramethyl-piperidin-4-yloxy)-quinoline], the IC50 (in general, the concentration needed to halve the response being measured) in assay [1] is 13 nM; in assay [2], 0.68 nM; in assay [3], 180 nM.
